System: CD8-positive HLA-A2402-restrictive CTL clones specific for the ErbB2 p63-71 peptide
Experiment: Stimulating activity of treated dendritic cells on proliferation of CTL clone
Assay type: cell-based, human
Settings: HLA-A2402 dendritic cells treated at protein concentration of 100 µg/ml for 3 hours or peptide-pulsed; compared to the non-treated dendritic cells; Fig. 3
Protocol: The dendritic cells, prepared from healthy human peripheral blood monocytes having HLA-A2402 as described above, were cultured with the CHP-ErbB2 suspension, the ErbB2 protein alone, the CHP-CAB suspension, or the CAB protein alone each at a protein concentration of 100 µ g/ml for 3 hours. The cells were washed and then further cultured for 15 hours.
By using these dendritic cells and the ErbB2 p63-71 peptide-pulsed dendritic cells derived from the same individual as stimulating cells, their abilities of stimulation were examined on the aforementioned CD8-positive HLA-A2402-restrictive CTL clones specific for the ErbB2 p63-71 peptide.

In the case of “p63-71 peptide: peptide having the 63-71 amino acid sequence of HER2, positive control (TYLPTNASL)”, the “stimulation and proliferation of the CTL clone” value is reported as “significantly stimulate the CTL clone and induce proliferation”.

From patent publication EP1126023A1, “METHOD FOR INDUCING CELLULAR IMMUNITY AND CELLS WITH INDUCED CELLULAR IMMUNITY” (MITSUBISHI CHEMICAL CORPORATION, priority 1998, dated 2000)
